From the NIST ThermoML archive (doi:10.1021/je400835u)

Assay: xn = mol fraction of the nth substance listed
Conditions: 100 kPa, Liquid; for viscosity: Falling or rolling sphere viscometry; for mass density: Vibrating tube method

CCCCC1CCCCC1 [butylcyclohexane] + CCCCCCCCCC
Conditions	mass density, 293.15 K [kg/m3]	mass density, 298.15 K [kg/m3]	mass density, 303.15 K [kg/m3]	mass density, 308.15 K [kg/m3]	mass density, 313.15 K [kg/m3]	viscosity, 293.15 K [mPa·s]	viscosity, 298.15 K [mPa·s]	viscosity, 303.15 K [mPa·s]	viscosity, 308.15 K [mPa·s]	viscosity, 313.15 K [mPa·s]
x1 = 0.0508	733.71	729.95	726.17	722.37	718.56	0.944	0.879	0.82	0.767	0.72
x1 = 0.1001	736.83	733.07	729.29	725.5	721.69	0.956	0.89	0.831	0.778	0.73
x1 = 0.1992	743.19	739.43	735.66	731.87	728.07	0.984	0.914	0.853	0.798	0.748
x1 = 0.2994	749.74	745.99	742.22	738.44	734.64	1.014	0.94	0.877	0.819	0.768
x1 = 0.3996	756.42	752.67	748.91	745.13	741.34	1.047	0.969	0.903	0.842	0.789
x1 = 0.5002	763.27	759.53	755.76	751.99	748.2	1.084	1.003	0.932	0.869	0.813
x1 = 0.5955	769.88	766.14	762.38	758.61	754.83	1.122	1.037	0.963	0.897	0.84
x1 = 0.6988	777.19	773.45	769.7	765.93	762.15	1.166	1.078	1.001	0.931	0.871
x1 = 0.8012	784.6	780.86	777.11	773.34	769.57	1.21	1.121	1.039	0.966	0.902
x1 = 0.8998	791.88	788.15	784.4	780.63	776.86	1.253	1.159	1.074	0.998	0.932
x1 = 0.9497	795.63	791.89	788.14	784.37	780.61	1.275	1.178	1.091	1.013	0.946
x1 = 1	799.44	795.7	791.95	788.19	784.41	1.296	1.196	1.107	1.027	0.958

CCCCC1CCCCC1 [butylcyclohexane] + CCCCCCCCCCCC
Conditions	mass density, 293.15 K [kg/m3]	mass density, 298.15 K [kg/m3]	mass density, 303.15 K [kg/m3]	mass density, 308.15 K [kg/m3]	mass density, 313.15 K [kg/m3]	viscosity, 293.15 K [mPa·s]	viscosity, 298.15 K [mPa·s]	viscosity, 303.15 K [mPa·s]	viscosity, 308.15 K [mPa·s]	viscosity, 313.15 K [mPa·s]
x1 = 0.0511	750.97	747.36	743.73	740.1	736.45	1.492	1.369	1.258	1.157	1.07
x1 = 0.0989	752.88	749.26	745.63	741.99	738.34	1.486	1.363	1.251	1.152	1.067
x1 = 0.2004	757.06	753.44	749.8	746.15	742.5	1.467	1.346	1.238	1.14	1.056
x1 = 0.3002	761.38	757.75	754.1	750.45	746.78	1.45	1.331	1.224	1.128	1.047
x1 = 0.4012	765.97	762.34	758.68	755.02	751.35	1.431	1.314	1.21	1.117	1.036
x1 = 0.5005	770.74	767.1	763.43	759.76	756.07	1.415	1.298	1.196	1.106	1.026
x1 = 0.6006	775.82	772.16	768.48	764.8	761.1	1.393	1.279	1.18	1.091	1.013
x1 = 0.7008	781.21	777.53	773.83	770.13	766.43	1.373	1.262	1.165	1.078	1.002
x1 = 0.7998	786.85	783.16	779.45	775.73	771.99	1.351	1.244	1.15	1.064	0.99
x1 = 0.8996	792.92	789.21	785.47	781.73	777.98	1.331	1.226	1.134	1.049	0.978
x1 = 0.9494	796.1	792.38	788.64	784.9	781.13	1.32	1.216	1.126	1.04	0.969
x1 = 1	799.44	795.7	791.95	788.19	784.41	1.296	1.196	1.107	1.027	0.958

CCCCC1CCCCC1 [butylcyclohexane] + CCCCCCCCCCCCCC
Conditions	mass density, 293.15 K [kg/m3]	mass density, 298.15 K [kg/m3]	mass density, 303.15 K [kg/m3]	mass density, 308.15 K [kg/m3]	mass density, 313.15 K [kg/m3]	viscosity, 293.15 K [mPa·s]	viscosity, 298.15 K [mPa·s]	viscosity, 303.15 K [mPa·s]	viscosity, 308.15 K [mPa·s]	viscosity, 313.15 K [mPa·s]
x1 = 0.0516	764.33	760.8	757.26	753.73	750.2	2.28	2.052	1.86	1.694	1.553
x1 = 0.1	765.53	762	758.46	754.92	751.38	2.234	2.011	1.823	1.662	1.523
x1 = 0.2001	768.14	764.6	761.06	757.51	753.96	2.135	1.924	1.746	1.593	1.463
x1 = 0.2988	770.93	767.38	763.83	760.27	756.69	2.037	1.838	1.67	1.526	1.401
x1 = 0.4001	774.02	770.46	766.89	763.31	759.72	1.934	1.749	1.592	1.457	1.341
x1 = 0.498	777.26	773.68	770.08	766.49	762.88	1.834	1.662	1.517	1.391	1.282
x1 = 0.6006	780.95	777.36	773.74	770.12	766.49	1.728	1.571	1.436	1.32	1.218
x1 = 0.7005	784.9	781.27	777.63	773.98	770.33	1.625	1.481	1.358	1.25	1.155
x1 = 0.7999	789.23	785.57	781.9	778.21	774.53	1.521	1.391	1.279	1.18	1.092
x1 = 0.9002	794.07	790.38	786.66	782.94	779.22	1.416	1.299	1.199	1.109	1.029
x1 = 0.95	796.66	792.94	789.21	785.48	781.73	1.363	1.254	1.159	1.073	0.998
x1 = 1	799.44	795.7	791.95	788.19	784.41	1.296	1.196	1.107	1.027	0.958
